Patent publication US10413583B2, “Synthetic substrates for enzymes that catalyze reactions of modified cysteines and related methods” (The University of Chicago, priority 2016, dated 2019)

Legend:
HEK293T cells = test: Live cell fluorescence imaging and flow cytometry of DPP-2 and DPP-3 in HEK293T cells; assay type: cell-based, human; conditions: 1 μM DPP-2 for 15 min, microscopy or flow cytometry
Method: HEK293T (650,000 cells per dish) cells were plated with 1.5 mL of Dulbecco's Modified Eagle Medium (DMEM) (High Glucose, 10% fetal bovine serum (FBS)) in a 35 mm glass bottom dish (D35-10-1.5-N; Cellvis, Mountain View, Calif., United States of America) 24 hrs prior to imaging. 30 min before the addition of the DPP probe, the cell culture media was removed and cells were washed with 1 mL of Delbecco's phosphate-buffered saline (DPBS). The media was then replaced with 1 mL of DMEM containing 1 μM Hoechst 33342 and either 0.1% DMSO carrier as a control, 1 or 2 μM Palm B, 0.1, 1.0, or 5 μM ML348, and incubated for 30 min at 37° C. and 5% CO2. The media was removed, the cells were washed with 1 mL of Live Cell Imaging Solution (Thermo Fisher Scientific, Waltham, Mass., United States of America), and 1 mL of 1 μM DPP-2 or DPP-3 in Live Cell Imaging Solution was added to each plate. For ML348 0.1, 1.0, or 5 μM was added along with DPP-2 or DPP-3. After incubation for 15 min at 37° C. and 5% CO2, images were obtained on an inverted epi-fluorescence microscope (Olympus IX83; Olympus Corporation, Tokyo, Japan) attached with EMCCD camera (Photometrics EVOLVE™ Delta; Photometrics, Tucson, Ariz., United States of America) with 40× oil objective (N/A 1.3) for DPP-2 (excitation filter 500/20, dichroic chroma 89007, emission filter 535/30, exposure time 200 ms, EM gain 25), Hoechst 33342: (excitation filter 402/15, emission filter 455/50, dichroic chroma 89013, exposure time 30 ms, EM gain 25), and brightfield (exposure time 5 ms, EM gain 5), and for DPP-3 (exposure time 500 ms, EM gain 150), Hoechst 33342: (exposure time 30 ms, EM gain 25), and brightfield (exposure time 20 ms, EM gain 5). Analyses were performed in ImageJ. For data analysis, the average fluorescence intensity per image in each experimental condition was obtained by selecting regions of interest (ROIs) in the brightfield image. For display, the data were normalized to the average fluorescence intensity of the control conditions. Each experiment was repeated at least three separate times with identical results.
Cells were plated on a 10 cm dish with 10 mL of DMEM/High Glucose (10% FBS, 1% P/S, L-Glutamine, Sodium pyruvate) 36-48 hours prior to the day of experiment and maintained at 37° C., 5% CO2 so as to obtain 80-90% confluency. Cells were washed with DPBS and trypsinized with 1 mL 0.05% Trypsin. 5 mL of DMEM/High Glucose (10% FBS, L-Glutamine, Sodium pyruvate) was added and cells were spun down at 1200 rpm for 3 min. Media was discarded and cells were resuspended in 5 mL of Live Cell Imaging Solution and again spun down at 1200 rpm for 3 min. The cells pellets obtained were resuspended in 3-5 mL of Live Cell Imaging Solution and divided into 500 μL aliquots. The aliquots were treated with either 0.2% DMSO carrier or 1 μM of PalmB/ML348 or 1 μM/5 μM of ML349 inhibitor. After 30 min of incubation at room temperature, 1 μL of 2.5 mM DPP-3 in DMSO was added to each aliquot for a final concentration of 5 μM, and the solutions were mixed. After 5 min incubation at room temperature, fluorescence signal in FITC channel was measured for 10000 cells (5000 for HeLa experiments) on a LSR-Fortessa 4-15 HTS (BD digital instrument, 488 nm laser with 530/30 nm filter for FITC; BD, Franklin Lakes, N.J., United States of America). For analyzing DPP2 in HEK293T cells, the aliquots were treated with either 0.2% DMSO carrier or 2 μM of PalmB, 5 or 20 μM of ML348/ML349 and then analyzed by the protocol as mentioned above. Data was analyzed by FlowJo software version 10.0.8. For comparison of A431 starved versus non-starved, parallel 10 cm dishes of A431 cells were plated in 10 mL of DMEM (high glucose, 10% FBS, 1% P/S), and grown for 36 h. The growth media was removed, and replaced by 10 mL of either DMEM (High glucose) with 10% FBS to maintain “growth” conditions, or DMEM (High glucose) without FBS respectively for “starvation” conditions, and incubated for 14 h. […]

APT1 = target: T1, APT1 (Homo sapiens, UniProt O75608); test: In vitro kinetic assay and emission spectra of DPP-1, DPP-2, DPP-3 with purified APT1 (with detergent); assay type: biochemical
T1 construct: His-tag; made in house; host or cells: E. coli ROSETTA DE3
T1 sequence (O75608 whole entry): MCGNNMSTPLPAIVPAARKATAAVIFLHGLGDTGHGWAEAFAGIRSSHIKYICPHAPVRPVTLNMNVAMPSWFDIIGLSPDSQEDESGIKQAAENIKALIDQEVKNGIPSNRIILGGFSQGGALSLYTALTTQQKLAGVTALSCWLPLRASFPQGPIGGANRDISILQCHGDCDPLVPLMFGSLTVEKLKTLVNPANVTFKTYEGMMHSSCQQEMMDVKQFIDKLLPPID
Method: (§1) 50 μL of 7.5 μM DPP1-3 in HEPES (20 mM, pH=7.4, 150 mM NaCl, 0.1% Triton X-100) were added to a 384-well black flat bottom plate (Corning Life Sciences, Corning, N.Y., United States of America) and placed in an Infinite M200 Pro (Tecan, Mannedorf, Switzerland) plate reader at 37° C. for 5 min to warm. 25 μL of either 4-(2-hydroxyethyl)-1-piperazineethanesulfonic acid (HEPES) buffer alone or HEPES buffer containing 150 nM APT1 or APT2, was added using a multi-channel pipette, resulting in a final concentration of 5 μM DPP1-3 and 50 nM APT1 or APT2. Fluorescence intensities (λex 490/9 nm, λem 545/20 nm, Gain 70, No. of flashes 25, Integration time 100 μs and Z-position 20000 μm) were measured at 30 second (s) time intervals for 20 min. At the end of 20 min kinetic run, emission spectra were obtained (λex 485 nm, Aem510-700 nm, Gain 100, No. of flashes 25, Integration time 100 μs and Z-position 20,000 μm).

[1] = Water solubility of probes (stated in words); assay type: physicochemical
APT2 = target: T2, APT2 (Homo sapiens, UniProt O95372); test: In vitro kinetic assay and emission spectra of DPP-1, DPP-2, DPP-3 with purified APT2 (with detergent); assay type: biochemical
T2 construct: His-tag; made in house; host or cells: E. coli ROSETTA DE3
T2 sequence (O95372 whole entry): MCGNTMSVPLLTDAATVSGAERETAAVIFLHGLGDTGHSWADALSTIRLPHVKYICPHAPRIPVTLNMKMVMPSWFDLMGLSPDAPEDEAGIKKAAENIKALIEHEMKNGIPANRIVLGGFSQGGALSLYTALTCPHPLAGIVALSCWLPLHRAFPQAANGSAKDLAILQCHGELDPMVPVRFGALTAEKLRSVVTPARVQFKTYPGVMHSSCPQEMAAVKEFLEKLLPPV
Method: as §1

- enhancement in fluorescence signal (APT1; 5 μM probe, 50 nM APT1, 20 min): 200 fold
- performance as substrate / reaction kinetics (APT1; purified APT1): slightly better than DPP-1
- water solubility [1]: water soluble
- performance as substrate (APT2): slightly better than DPP-1
Structure (SMILES): CCCCCCCC(=O)SC[C@@H](C(=O)NC)N(C)C(=O)Oc1ccc2c(c1)Oc1cc(N(C)C)ccc1C21OC(=O)c2ccccc21 (some centres unmarked) [DPP-2]
- probe fluorescent signal in live cells (HEK293T cells): robust intracellular fluorescent signal
